{"source": "patent US20220087987A1", "about": "“A METHOD FOR TREATING SWI/SNF COMPLEX-DEFICIENT CANCERS COMPRISING GLUTATHIONE (GSH) METABOLIC PATHWAY INHIBITOR” (National Cancer Center, priority 2018, published 2022)", "key": {"[1]": {"test_system": "ovarian PDCs", "experiment": "Cell viability of ovarian patient-derived cancer cells", "assay_type": "cell-based, human", "details": "33 μM APR-246 or 100 μM BSO for 6 days", "experimental": "Tumor samples and ascites were obtained from four ovarian cancer patients who underwent surgery or cell-free and concentrated ascites reinfusion therapy at the National Cancer Center Hospital or Kaname-cho Hospital (Tokyo, Japan) and were cultured in vitro. This protocol was approved by the Institutional Review Board of the National Cancer Center (Tokyo, Japan), and informed consent was obtained from the patients. To establish CCCO219 and CCC1216 PDCs, patient ascites (24 ml) were diluted in two volumes of PBS containing 2 mM EDTA, layered over 15 ml Ficoll-Paque PLUS (GE Healthcare), and centrifuged at 2200 rpm for 30 min. The interphase mononuclear layer was transferred to a fresh conical tube and washed twice with PBS containing 2 mM EDTA. […]\nCell viability was examined by measuring the cellular ATP level using the CellTiter-Glo Luminescent Cell Viability Assay (Promega). […] Cells were trypsinized after a further 48 hrs, counted, and reseeded at the specified density in 96-well plates. To measure cell viability after drug treatment, cells were trypsinized, counted, reseeded at the specified density in 96-well plates, and exposed to the indicated concentrations of drugs. Cell viability was measured using the CellTiter-Glo Luminescent Cell Viability Assay. Luminescence was measured using an Envision Multi-label plate reader (PerkinElmer)."}, "[2]": {"test_system": "SWI/SNF complexes (SMARCA2, SMARCA4, SMARCB1, PBRM1) deficient cancer cells", "experiment": "Cell viability of SWI/SNF complex-deficient cancer cell lines", "assay_type": "cell-based, human", "details": "treatment for 6 days", "experimental": "(§1) Cell viability was examined by measuring the cellular ATP level using the CellTiter-Glo Luminescent Cell Viability Assay (Promega). To measure cell viability after siRNA-mediated knockdown, cell lines were transfected with siRNAs (25 nM) using Lipofectamine RNAiMAX. After 48 hrs, cells were trypsinized and repeatedly transfected with siRNAs (25 nM) using Lipofectamine RNAiMAX. Cells were trypsinized after a further 48 hrs, counted, and reseeded at the specified density in 96-well plates. To measure cell viability after drug treatment, cells were trypsinized, counted, reseeded at the specified density in 96-well plates, and exposed to the indicated concentrations of drugs. Cell viability was measured using the CellTiter-Glo Luminescent Cell Viability Assay. Luminescence was measured using an Envision Multi-label plate reader (PerkinElmer)."}, "[3]": {"test_system": "ARID1A-deficient TOV21G OCCC xenografts", "experiment": "Mouse xenograft model, TOV21G", "assay_type": "in vivo, mice", "details": "APR-246 50 mg/kg", "experimental": "All mouse experiments were approved by the National Cancer Center (NCC) animal Ethical Committee. Cells were counted and re-suspended in a 1:1 mixture of 100 μl culture medium and 100 μl Matrigel (BD Biosciences) on ice. […] In the subcutaneous model, once the tumors were palpable (about 3-14 days after implantation), mice were randomly divided into two groups. […] In the doxycycline (Dox) treatment study, TOV21G-shNT cells and TOV21G-shGCLC cells were injected into the flanks of 6-week-old female BALB/c-nu/nu mice. […] In other experiments, TOV21G-shNT cells and TOV21G-shGCLC cells were treated with Dox (0.5 μg/ml) for 4 days and then injected into the flank of 6-week-old female BALB/c-nu/nu mice. […] Tumor growth was measured every several days using calipers. The volume of implanted tumors was calculated using the formula V=L×W2/2, where V is volume (mm^3), L is the largest diameter (mm), and W is the smallest diameter (mm). At the end of the experiment, mice were sacrificed in accordance with standard protocols.\nGSH was detected using the GSH-Glo Assay (Promega). Tumor samples derived from xenografts were weighed and washed with PBS. The tumor samples were mixed with 50 μl of PBS and homogenized using a Mini Cordless Grinder (Funakoshi). PBS (950 μl) was added to homogenized tumor samples and centrifuged at 4° C. for 10 min at 15,000 rpm. Tumor extract and 2×GSH-Glo Reagent (25 μl of each) were mixed in white 96-well plates (Greiner) and incubated for 30 min at room temperature. Luciferin Detection Reagent (50 μl) was added and the samples were incubated for 15 min at room temperature. Luminescence was measured using an Envision Multi-label plate reader (PerkinElmer). GSH signal intensities per 1 mg of tumor sample were calculated.\nFormalin-fixed, paraffin-embedded ovarian cancer clinical specimens and TOV21G xenografts were deparaffinized and representative whole 4-μm-thick sections were analyzed by IHC. […] The samples were removed from the freezer and equilibrated at −20° C. for approximately 15 minutes before sectioning. Tissue sections (6 μm thick) were placed on positively charged slides, dried, and fixed for 15 minutes at room temperature in 3% formaldehyde, followed by 5 minutes in methanol at −20° C. After fixation, representative sections were analyzed by IHC. […] All IHC staining was performed using a Dako autostainer Link48 (Dako).\nFirst, membrane staining intensity (0, 1+, 2+, or 3+) was determined for each cell in a fixed field. The H-score was assigned using the following formula: [1×(% cells 1+)+2×(% cells 2+)+3×(% cells 3+)]. The final score, ranging from 0 to 300, gives more relative weight to higher-intensity membrane staining in a given tumor sample. The percentage of NOXA-, cleaved caspase-3-, cleaved PARP- and Ki67-positive cells (of the total number of cells) in each slide were counted."}, "[4]": {"test_system": "ARID1A-proficient and ARID1A-deficient cancer cell lines", "experiment": "Cell viability and colony formation in cancer cell line panel", "assay_type": "cell-based, human"}, "[5]": {"test_system": "ROS", "experiment": "Detection of ROS in cells (ROS-Glo)", "assay_type": "cell-based, human", "details": "ARID1A-deficient versus ARID1A-proficient ovarian and other cancer cells", "experimental": "(§2) GSH, ROS and apoptosis were detected using the GSH/GSSG-Glo Assay (Promega) and/or the GSH-Glo Assay (Promega), the ROS-Glo Assay (Promega), and the Caspase-Glo 3/7 Assay, respectively. To measure levels of GSH, ROS and apoptosis after drug treatment, cells were trypsinized, counted, reseeded at the specified density in 96-well plates and exposed to the indicated concentrations of drugs. After 16-48 hrs, luminescence was measured using an Envision Multi-label plate reader (PerkinElmer). To measure levels of GSH and ROS after siRNA-mediated knockdown, cell lines were transfected with siRNAs (25 nM) using Lipofectamine RNAiMAX. After 48 hrs, cells were trypsinized and transfected repeatedly with siRNAs (25 nM) using Lipofectamine RNAiMAX. Cells were trypsinized after a further 48 hrs, counted, and reseeded at the specified density in 96-well plates. After 72-120 hrs, luminescence was measured using an Envision Multi-label plate reader (PerkinElmer). Cell viability was also measured using the CellTiter-Glo Luminescent Cell Viability Assay (Promega). Caspase-3/7, GSH, and ROS levels were normalized against cell viability. The GSH/GSSG ratio was calculated as the GSH-GSSG signal divided by the GSSG/2 signal. Relative signal ratios in treated samples were normalized against untreated samples."}, "[6]": {"test_system": "ARID1A-KO cells and ARID1A-deficient cancer cells", "experiment": "Apoptosis detection (cleaved caspase-3/7, Annexin V)", "assay_type": "cell-based, human", "experimental": "The Annexin V-FITC/PI Apoptosis Detection Kit (Sigma-Aldrich) was used to detect apoptotic cells. Briefly, the cell pellet was suspended in 1× binding buffer and then incubated with Annexin V-FITC and PI in the dark for 10 min. Fluorescence was analyzed on a Guava flow cytometer (Millipore). Data were analyzed using GuavaSoft software (v. 2.7). Relative ratios of the Annexin V-positive fraction in treated samples were normalized against untreated samples.\nas §2, with “To measure levels of GSH and ROS after siRNA-mediated knockdown, cell lines were transfected with siRNAs (25 nM) using Lipofectamine RNAiMAX. After 48 hrs, cells were trypsinized and transfected repeatedly with siRNAs (25 nM) using Lipofectamine RNAiMAX.” left out, “Caspase-3/7, GSH, and ROS levels were normalized against cell viability.” left out, “Relative signal ratios in treated samples were normalized against untreated samples.” left out"}, "[7]": {"test_system": "diffuse-type gastric cancer PDCs", "experiment": "Cell viability of diffuse-type gastric cancer PDCs", "assay_type": "cell-based, human", "details": "treatment for 6 days"}, "[8]": {"test_system": "GSH", "experiment": "Detection of GSH in cells (GSH/GSSG-Glo, GSH-Glo)", "assay_type": "cell-based, human", "details": "ARID1A-deficient versus ARID1A-proficient ovarian and other cancer cells"}, "[9]": {"test_system": "uterine cancer cell lines", "experiment": "Cell viability of uterine cancer cell lines", "assay_type": "cell-based, human", "details": "treatment for 6 days", "experimental": "as §1"}, "[10]": {"test_system": "bile duct cancer cell lines", "experiment": "Cell viability of bile duct cancer cell lines", "assay_type": "cell-based, human", "details": "treatment for 6 days", "experimental": "as §1"}}, "data": [{"smiles": "CCCCS(=N)(=O)CCC(N)C(=O)O", "note": "(stereo not shown) [BSO, buthionine sulfoximine]", "values": [{"measurement": "sensitivity of ARID1A-deficient versus ARID1A-positive PDCs", "setting": "[1]", "result": "more sensitive"}, {"measurement": "sensitivity to BSO (relative AUC for cell viability)", "setting": "[2]", "result": "sensitized these SWI/SNF complexes deficient cell lines more efficiently than these SWI/SNF complexes proficient cell lines"}, {"measurement": "tumor weight", "setting": "[3]; BSO 750 mg/kg", "result": "reduced tumor weight"}, {"measurement": "body weight of mice", "setting": "[3]; BSO 750 mg/kg once a day", "result": "without loss of body weight"}, {"measurement": "growth of xenografts (tumor volume)", "setting": "[3]; intraperitoneally once daily 12-14 days, BSO 750 mg/kg", "result": "markedly suppressed xenograft growth"}, {"measurement": "sensitivity of ARID1A-deficient TOV21G versus ARID1A-proficient RMG-I ovarian cancer cells", "setting": "[4]; cell viability after 3 days", "result": "more sensitive than ARID1A-proficient RMG-I ovarian cancer cells"}, {"measurement": "sensitivity of ARID1A-deficient versus ARID1A-proficient cancer cells", "setting": "[4]; four ARID1A-proficient and six ARID1A-deficient cell lines, cell viability, colony formation", "result": "selectively sensitive to BSO"}, {"measurement": "ROS level in cancer cell lines", "setting": "[5]", "result": "increased ROS levels"}, {"measurement": "apoptosis (caspase activation, Annexin V)", "setting": "[6]", "result": "increased apoptosis"}, {"measurement": "sensitivity to BSO (relative AUC for cell viability)", "setting": "[7]", "result": "sensitized ARID1A-deficient PDCs more efficiently than ARID1A-proficient PDCs"}, {"measurement": "GSH level in cancer cell lines", "setting": "[8]", "result": "decreased the GSH level"}, {"measurement": "sensitivity to BSO of uterine cancer cell lines", "setting": "[9]", "result": "sensitized ARID1A-deficient cell lines more efficiently than ARID1A-proficient cell lines"}, {"measurement": "sensitivity to BSO of bile duct cancer cell lines", "setting": "[10]", "result": "sensitized ARID1A-deficient cell lines more efficiently than ARID1A-proficient cell lines"}]}]}
